Like-named read-outs stand apart in the source and are kept apart here.
Target: T1, 11β-HSD1 (Homo sapiens, UniProt P28845)
T1 construct: detecting cortisol generated from cortisterone by human liver microsomes; from tissue; host or cells: human liver microsomes
Experiment: In vitro inhibition of 11β-HSD1, HTRF detection of cortisol generated from cortisone by human liver microsomes
Type: biochemical
Conditions: 1 hour at 37° C., pH 6.0, NADPH 200 μM, cortisone 80 nM, inhibition relative to carbenoxolone signal
Description: Cortisol generated in the reaction is then detected with a competitive immunoassay, involving two HTRF conjugates: cortisol linked to XL665 and anti-cortisol antibody labeled with Europium cryptate. The incubation period for detection reaction was typically 2 hours. […] The ratio of the two emission signals is then calculated (Em665*10000/Em615). […] Each assay also contained a calibration curve with cortisol to transform the fluorescent data into cortisol concentrations. Percent inhibition of each compound was determined relative to the carbenoxolone signal and IC50 curves were generated.

T1 sequence (P28845 whole entry): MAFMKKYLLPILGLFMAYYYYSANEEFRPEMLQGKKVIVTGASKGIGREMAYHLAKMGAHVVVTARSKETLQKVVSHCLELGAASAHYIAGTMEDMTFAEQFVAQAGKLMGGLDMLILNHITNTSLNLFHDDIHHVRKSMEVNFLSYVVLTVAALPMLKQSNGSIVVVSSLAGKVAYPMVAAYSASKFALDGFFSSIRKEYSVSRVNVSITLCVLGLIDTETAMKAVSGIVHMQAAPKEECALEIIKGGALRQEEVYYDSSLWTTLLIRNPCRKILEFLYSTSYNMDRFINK

## CC12CCN(C(=O)c3ccc4nc[nH]c4c3)C(Cc3ccc(F)cc31)C2(C)C (centres unmarked) [Example 70, (3H-Benzoimidazol-5-yl)-(8-fluoro-6,11,11-trimethyl-1,2,5,6-tetrahydro-4H-2,6-methano-benzo[d]azocin-3-yl)-methanone]
11β-HSD IC50 (nM)
  IC50: 362 nM

## COC(=O)c1cccc(C(=O)N2CC[C@@]3(C)c4cccc(O)c4C[C@@H]2C3(C)C)c1 [Example 30, 3-[(2R,6S)-10-Hydroxy-6,11,11-trimethyl-1,2,5,6-tetrahydro-4H-2,6-methano-benzo[d]azocine-3-carbonyl]-benzoic acid methyl ester]
11β-HSD IC50 (nM)
  IC50: 1400 nM

## CC1(C)[C@H]2Cc3c(O)cccc3[C@]1(C)CCN2C(=O)c1ccccn1 [Example 128, [(2R,6S)-10-Hydroxy-6,11,11-trimethyl-1,2,5,6-tetrahydro-4H-2,6-methano-benzo[d]azocin-3-yl]-pyridin-2-yl-methanone]
11β-HSD IC50 (nM)
  IC50: 1290 nM

## COc1cccc(C(=O)N2CC[C@@]3(C)c4cccc(O)c4C[C@@H]2C3(C)C)c1 [Example 11, [(2R,6S)-10-Hydroxy-6,11,11-trimethyl-1,2,5,6-tetrahydro-4H-2,6-methano-benzo[d]azocin-3-yl]-(3-methoxy-phenyl)-methanone]
11β-HSD IC50 (nM)
  IC50: 530 nM

## CC12CCN(C(=O)c3ccc4nc[nH]c4c3)C(Cc3cc(NS(C)(=O)=O)ccc31)C2(C)C (centres unmarked) [Example 181, N-[3-(3H-Benzoimidazole-5-carbonyl)-6,11,11-trimethyl-1,2,3,4,5,6-hexahydro-2,6-methano-benzo[d]azocin-9-yl]-methanesulfonamide]
11β-HSD IC50 (nM)
  IC50: 147 nM

## CC1(C)[C@H]2Cc3ccc(S(C)(=O)=O)cc3[C@]1(C)CCN2C(=O)c1ccc2nc[nH]c2c1 [Example 233, (3H-Benzoimidazol-5-yl)-[(2R,6S)-8-methanesulfonyl-6,11,11-trimethyl-1,2,5,6-tetrahydro-4H-2,6-methano-benzo[d]azocin-3-yl)-methanone]
11β-HSD IC50 (nM)
  IC50: 144 nM

## Cc1nc2cc3c(cc2n1C)[C@]1(C)CCN(C(=O)c2ccc4nc[nH]c4c2)[C@H](C3)C1(C)C [Example 242, (3H-Benzoimidazol-5-yl)-[(6R,10S)-5,6,7,8,9,10-hexahydro-1,2,10,12,12-pentamethyl-6,10-methano-imidazo[5,4-i][3]benzazocin-7-yl]-methanone]
11β-HSD IC50 (nM)
  IC50: 547 nM

## CC1(C)[C@H]2Cc3c(O)cccc3[C@]1(C)CCN2C(=O)c1ccc(C(=O)NCc2ccccc2)cc1 [Example 137, N-Benzyl-4-[(2R,6S)-10-hydroxy-6,11,11-trimethyl-1,2,5,6-tetrahydro-4H-2,6-methano-benzo[d]azocine-3-carbonyl]-benzamide]
11β-HSD IC50 (nM)
  IC50: 3620 nM

## C[C@@H]1[C@H]2Cc3cc4nc[nH]c4cc3[C@]1(C)CCN2C(=O)c1ccc2nc[nH]c2c1 [Example 224, (3H-Benzoimidazol-5-yl)-[(6R,10R,12S)-5,6,7,8,9,10-hexahydro-10,12-dimethyl-6,10-methano-1H-imidazo[5,4-i][3]benzazocin-7-yl]-methanone]
11β-HSD IC50 (nM)
  IC50: 21 nM

## Cc1nc2cc3c(cc2n1C)C[C@H]1N(C(=O)c2ccc4nc[nH]c4c2)CC[C@]3(C)C1(C)C [Example 243, (3H-Benzoimidazol-5-yl)-[(6R,10S)-5,6,7,8,9,10-hexahydro-2,3,10,12,12-pentamethyl-6,10-methano-imidazo[4,5-i][3]benzazocin-7-yl]-methanone]
11β-HSD IC50 (nM)
  IC50: 113 nM

## CC1(C)[C@H]2Cc3c(O)cccc3[C@]1(C)CCN2C(=O)c1ccc(CN2CCCC2)cc1 [Example 120, [(2R,6S)-10-Hydroxy-6,11,11-trimethyl-1,2,5,6-tetrahydro-4H-2,6-methano-benzo[d]azocin-3-yl]-(4-pyrrolidin-1-ylmethyl-phenyl)-methanone]
11β-HSD IC50 (nM)
  IC50: 3840 nM

## CC1(C)[C@H]2Cc3c(O)cccc3[C@]1(C)CCN2C(=O)c1c[nH]c2ccc(F)cc12 [Example 193, (5-Fluoro-1H-indol-3-yl)-[(2R,6S)-10-hydroxy-6,11,11-trimethyl-1,2,5,6-tetrahydro-4H-2,6-methano-benzo[d]azocin-3-yl]-methanone]
11β-HSD IC50 (nM)
  IC50: 360 nM

## C[C@@H]1[C@H]2Cc3ccc(-c4ccncc4)cc3[C@]1(C)CCN2C(=O)c1ccc2nc[nH]c2c1 [Example 251, (3H-Benzoimidazol-5-yl)-[(2R,6R,11S)-6,11-dimethyl-8-pyridin-4-yl-1,2,5,6-tetrahydro-4H-2,6-methano-benzo[d]azocin-3-yl]-methanone]
11β-HSD IC50 (nM)
  IC50: 66 nM

## O=C(c1ccc2nc[nH]c2c1)N1CCC2CC1Cc1ccccc12 (centres unmarked) [Example 60, (3H-Benzoimidazol-5-yl)-(1,2,5,6-tetrahydro-4H-2,6-methano-benzo[d]azocin-3-yl)-methanone]
11β-HSD IC50 (nM)
  IC50: 228 nM

## CC1(C)[C@H]2Cc3ccccc3[C@]1(C)CCN2C(=O)c1cc(Cl)c(O)c(Cl)c1 [Example 320, (3,5-Dichloro-4-hydroxy-phenyl)-[(2R,6S)-6,11,11-trimethyl-1,2,5,6-tetrahydro-4H-2,6-methano-benzo[d]azocin-3-yl]-methanone]
11β-HSD IC50 (nM)
  IC50: 165 nM

## CC1(C)[C@H]2Cc3c(O)cccc3[C@]1(C)CCN2C(=O)c1ccc2[nH]ccc2c1 [Example 49, [(2R,6S)-10-Hydroxy-6,11,11-trimethyl-1,2,5,6-tetrahydro-4H-2,6-methano-benzo[d]azocin-3-yl]-(1H-indol-5-yl)-methanone]
11β-HSD IC50 (nM)
  IC50: 168 nM

## CC1(C)[C@H]2Cc3c(O)cccc3[C@]1(C)CCN2C(=O)c1ccnn1-c1ccccc1 [Example 216, [(2R,6S)-10-Hydroxy-6,11,11-trimethyl-1,2,5,6-tetrahydro-4H-2,6-methano-benzo[d]azocin-3-yl]-(2-phenyl-2H-pyrazol-3-yl)-methanone]
11β-HSD IC50 (nM)
  IC50: 1720 nM

## Cc1nc(-c2ccc3c(c2)[C@]2(C)CCN(C(=O)c4ccc5nc[nH]c5c4)[C@H](C3)[C@H]2C)no1 [Example 231, (3H-Benzoimidazol-5-yl)-[(2R,6R,11S)-6,11-dimethyl-8-(5-methyl-[1,2,4]oxadiazol-3-yl)-1,2,5,6-tetrahydro-4H-2,6-methano-benzo[d]azocin-3-yl]-methanone]
11β-HSD IC50 (nM)
  IC50: 146 nM

## Cc1ccccc1C(=O)N1CC[C@@]2(C)c3cccc(O)c3C[C@@H]1C2(C)C [Example 5, [(2R,6S)-10-Hydroxy-6,11,11-trimethyl-1,2,5,6-tetrahydro-4H-2,6-methano-benzo[d]azocin-3-yl]-o-tolyl-methanone]
11β-HSD IC50 (nM)
  IC50: 3100 nM

## CC1(C)[C@H]2Cc3cc4nc([C@@H]5CCCO5)[nH]c4cc3[C@]1(C)CCN2C(=O)c1ccc2nc[nH]c2c1 [Example 275, (3H-Benzoimidazol-5-yl)-[(6R,10S)-5,6,7,8,9,10-hexahydro-10,12,12-trimethyl-2-[(S)-tetrahydrofuran-2-yl]-6,10-methano-imidazo[5,4-i][3]benzazocin-7-yl]-methanone]
11β-HSD IC50 (nM)
  IC50: 25 nM

## CCOC(=O)c1ccc2c(c1)[C@]1(C)CCN(C(=O)c3ccc4nc[nH]c4c3)[C@H](C2)[C@H]1C [Example 91, (2R,6R,11S)-3-(3H-Benzoimidazole-5-carbonyl)-6,11-dimethyl-1,2,3,4,5,6-hexahydro-2,6-methano-benzo[d]azocine-8-carboxylic acid ethyl ester]
11β-HSD IC50 (nM)
  IC50: 711 nM

## Cc1nc2cc3c(cc2o1)C[C@H]1N(C(=O)c2ccc4nc[nH]c4c2)CC[C@]3(C)C1(C)C [Example 301, (3H-Benzoimidazol-5-yl)-[(6R,10S)-5,6,7,8,9,10-hexahydro-2,10,12,12-tetramethyl-6,10-methano-oxazolo[4,5-i][3]benzazocin-7-yl]-methanone]
11β-HSD IC50 (nM)
  IC50: 32 nM

## CC1(C)[C@H]2Cc3c(O)cccc3[C@]1(C)CCN2C(=O)c1ccc(N2CCNCC2)cc1 [Example 26, [(2R,6S)-10-Hydroxy-6,11,11-trimethyl-1,2,5,6-tetrahydro-4H-2,6-methano-benzo[d]azocin-3-yl]-(4-piperazin-1-yl-phenyl)-methanone]
11β-HSD IC50 (nM)
  IC50: 2890 nM

## CC12CCCN(C(=O)c3ccc4nc[nH]c4c3)C(Cc3ccccc31)C2 (centres unmarked) [Example 324, (3H-Benzoimidazol-5-yl)-(1-methyl-10-aza-tricyclo[7.4.1.0*2,7*]tetradeca-2,4,6-trien-10-yl)-methanone]
read-out: 11β-HSD IC50
  IC50: 121 nM

## C[C@@H]1[C@H]2Cc3ccc(-c4nnco4)cc3[C@]1(C)CCN2C(=O)c1ccc2nc[nH]c2c1 [Example 334, (3H-Benzoimidazol-5-yl)-[(2R,6R,11S)-6,11 dimethyl-8-[1,3,4]oxadiazol-2-yl-1,2,5,6-tetrahydro-4H-2,6-methano-benzo[d]azocin 3-yl]-methanone]
11β-HSD IC50 (nM)
  IC50: 104 nM

## CCOC(=O)c1cccc2c1C[C@H]1N(C(=O)c3ccc4nc[nH]c4c3)CC[C@]2(C)C1(C)C [Example 95, (2R,6S)-3-(1H-Benzoimidazole-5-carbonyl)-6,11,11-trimethyl-1,2,3,4,5,6-hexahydro-2,6-methano-benzo[d]azocine-10-carboxylic acid ethyl ester]
11β-HSD IC50 (nM)
  IC50: 3840 nM

## C[C@@H]1[C@H]2Cc3ccc(-c4cncnc4)cc3[C@]1(C)CCN2C(=O)c1ccc2nc[nH]c2c1 [Example 252, (3H-Benzoimidazol-5-yl)-[(2R,6R,11S)-6,11-dimethyl-8-pyrimidin-5-yl-1,2,5,6-tetrahydro-4H-2,6-methano-benzo[d]azocin-3-yl]-methanone]
11β-HSD IC50 (nM)
  IC50: 61 nM

## Cn1cnc2cc3c(cc21)C[C@H]1N(C(=O)c2ccc4nc[nH]c4c2)CC[C@]3(C)C1(C)C [Example 240, (3H-Benzoimidazol-5-yl)-[(6R,10S)-5,6,7,8,9,10-hexahydro-3,10,12,12-tetramethyl-6,10-methano-imidazo[4,5-i][3]benzazocin-7-yl]-methanone]
11β-HSD IC50 (nM)
  IC50: 51 nM

## CC(=O)c1ccc(C(=O)N2CC[C@@]3(C)c4ccccc4C[C@@H]2C3(C)C)cc1 [Example 299]
11β-HSD IC50 (nM)
  IC50: 352 nM
